The source of these data is US20240424477A1, “SYSTEM AND DEVICES FOR REMOVAL OF CONTAMINATES” (priority 2021, published 2024).

The conditions of experiment [1]: conventional drinking water treatment, literature; cited from earlier work.
For the next experiment, the system named is MO protein. Nature of the experiment: 19F NMR protein-ligand binding (peak height ratio B). Set-up: species or system Moringa oleifera. To be noted: PFAS 50 mg/L. Here is the method: ^19F NMR. ^19F NMR measurements were taken on a Bruker AVANCE III 500 NMR. 3,000 scans were run for each sample with a 1 second relaxation delay. TFMAA was added to each sample as an internal standard. 90% H2O and 10% D20 were used for instrument lock and calibration. PFAS concentrations remained constant at 50 mg/L. […] of sample was used for each run. ^19F NMR spectra were obtained with a spectral width 113636.36 Hz and spectral frequency 470.57 MHz.
Spectrum were analyzed via MestreNova software for phase correction and baseline correction. Peak picking was completed automatically by the software. […] Intensities were normalized by TFMAA peak area at approximately −64.9 ppm. NMR data is included in the Supporting Information. The NMR peak height ratio, B, can be used to determine the relative ranking of binding affinities between protein-ligand complexes. B was calculated using Equation (1)
Where lb is the sum of ligand NMR heights in the presence of protein and lh is the sum of free ligand NMR heights.
^19F NMR. NMR can be used to study protein-ligand interactions by examining changes in peak height, peak width, and chemical shifts. A decrease in peak height indicates the formation of a protein-ligand complex. Previous literature has used ^19F NMR to look at PFAS binding to albumin proteins. In this work, PFAS (ligand) concentrations remain constant while MO protein concentrations were varied.

The mark [2] stands for this setting: when protein concentrations increase.

On to `[Cl][Fe]([Cl])[Cl]` [FeCl3, ferric chloride], for which the “removal of PFOA and PFOS by coagulation” value in experiment [1] is given as “about 20%”.

In the case of `O=C(O)C(F)(F)C(F)(F)C(F)(F)C(F)(F)C(F)(F)C(F)(F)C(F)(F)F` [PFOA, perfluorooctanoic acid], the “binding affinity to MO protein (NMR peak height ratio, B)” value with MO protein (setting [2]) is on record as “similar”.

Turning to `O=S(=O)(O)C(F)(F)C(F)(F)C(F)(F)C(F)(F)C(F)(F)C(F)(F)C(F)(F)C(F)(F)F` [PFOS, perfluorooctanesulfonic acid], the “binding affinity to MO protein (NMR peak height ratio, B)” value in the experiment with MO protein (lower protein concentrations) was “stronger affinity than MO-PFOA”; with MO protein (setting [2]), “similar”.

In the case of alum, the “removal of PFOA and PFOS by coagulation” value in experiment [1] is listed as “about 20%”.
